The NIST ThermoML archive (doi:10.1016/j.jct.2011.01.016)
± gives the expanded uncertainty stated by the source.

Assay: xn = mol fraction of the nth substance listed
Details: 100 kPa, Liquid; for viscosity: Concentric cylinders viscometry; for mass density: Vibrating tube method

CCCCCCCCCC(=O)[O-].CCCCCCCCCCCCCC[P+](CCCCCC)(CCCCCC)CCCCCC [trihexyltetradecylphosphonium decanoate] + O
x2 = 0.872
Details | mass density [kg/m3] | viscosity [mPa·s]
298.15 K | 901.2 ± 7.3 | 90.95 ± 0.95
303.15 K | 897.8 ± 7.3 | 70.57 ± 0.6
308.15 K | 894.5 ± 7.2 | 55.66 ± 0.41
313.15 K | 891.1 ± 7.2 | 44.65 ± 0.35
318.15 K | 887.7 ± 7.2 | 36.26 ± 0.28
323.15 K | 884.3 ± 7.1 | 29.77 ± 0.23
328.15 K | 880.9 ± 7.1 | 24.65 ± 0.19
333.15 K | 877.5 ± 7.1 | 20.59 ± 0.16
338.15 K | 874 ± 7.1 | 17.35 ± 0.14
343.15 K | 870.6 ± 7 | 14.72 ± 0.12
348.15 K | 867.1 ± 7 | 12.57 ± 0.098
353.15 K | 863.7 ± 7 | 10.8 ± 0.085
358.15 K | 860.2 ± 7 | 9.345 ± 0.073
363.15 K | 856.8 ± 6.9 | 8.114 ± 0.064

CCCCCCCCCCCCCC[P+](CCCCCC)(CCCCCC)CCCCCC.CS(=O)(=O)[O-] [trihexyltetradecylphosphonium methanesulfonate] + O
x2 = 0.825
Details | mass density [kg/m3] | viscosity [mPa·s]
298.15 K | 935.1 ± 1.5 | 126.55 ± 1.7
303.15 K | 931.8 ± 1.5 | 97.43 ± 1.1
308.15 K | 928.4 ± 1.5 | 76.18 ± 0.69
313.15 K | 925.1 ± 1.5 | 60.41 ± 0.47
318.15 K | 921.7 ± 1.5 | 48.54 ± 0.38
323.15 K | 918.4 ± 1.5 | 39.48 ± 0.31
328.15 K | 915 ± 1.5 | 32.49 ± 0.26
333.15 K | 911.6 ± 1.5 | 27.02 ± 0.21
338.15 K | 908.2 ± 1.5 | 22.69 ± 0.18
343.15 K | 904.8 ± 1.5 | 19.23 ± 0.15
348.15 K | 901.4 ± 1.5 | 16.45 ± 0.13
353.15 K | 898 ± 1.5 | 14.16 ± 0.11
358.15 K | 894.6 ± 1.5 | 12.28 ± 0.096
363.15 K | 891.2 ± 1.5 | 10.71 ± 0.084
